Some results are limits rather than exact numbers.

The target in one assay is SMYD3 (Homo sapiens (Human), UniProt Q9H7B4). The experiment in a line: SMYD3 biochemical assay (SMYD3 enzyme assay on MEKK2 protein substrate, 3H-SAM scintillation proximity assay). As to conditions: Table 1A; average of n = 1 to n = 50; read-out: SMYD3 Biochem IC50. In a few lines: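 Detection used scintillation proximity beads to capture ³H-methylated GST-MEKK2 after quench with 100 uM final cold SAM. The reaction was started by SAM/MEKK2 addition after a 30 min RT compound–enzyme preincubation. Enzyme was tag-free full-length human SMYD3 from E. coli, in buffer of 25 mM Tris-Cl pH 8.0, 1 mM TCEP, 0.005% BSG, 0.005% Tween 20.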
Sequence of SMYD3 (Q9H7B4 whole entry): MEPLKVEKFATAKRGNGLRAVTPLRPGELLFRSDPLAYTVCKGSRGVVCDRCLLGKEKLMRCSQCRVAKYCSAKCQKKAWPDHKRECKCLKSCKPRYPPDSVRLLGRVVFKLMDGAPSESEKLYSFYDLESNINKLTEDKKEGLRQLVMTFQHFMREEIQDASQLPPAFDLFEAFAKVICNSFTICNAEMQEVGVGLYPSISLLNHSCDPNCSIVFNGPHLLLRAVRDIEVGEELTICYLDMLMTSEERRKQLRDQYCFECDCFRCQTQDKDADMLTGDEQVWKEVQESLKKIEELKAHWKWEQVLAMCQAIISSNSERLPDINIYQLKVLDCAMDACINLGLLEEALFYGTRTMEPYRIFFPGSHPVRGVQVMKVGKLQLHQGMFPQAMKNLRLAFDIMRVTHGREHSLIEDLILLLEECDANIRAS
For orientation: Scintillation proximity formats need no separation of bound from free tracer.
On to `CC(NC(=O)c1nnc[nH]1)C1CCN(C(=O)[C@H](C)N)CC1` (stereo partly drawn) [compound 523, N-(1-(1-(L-alanyl)piperidin-4-yl)ethyl)-4H-1,2,4-triazole-3-carboxamide], for which the IC50 is greater than 50 µM. Same read-out and setting: the same measure for `N[C@H]1CC[C@H](NC(=O)c2cnc3ncccn23)CC1` [compound 574, N-((1r,4r)-4-aminocyclohexyl)imidazo[1,2-a]pyrimidine-3-carboxamide]: greater than 10 µM; for `Cc1[nH]cnc1C(=O)N[C@H]1CC[C@H](N)CC1` [compound 542, N-((1r,4r)-4-aminocyclohexyl)-5-methyl-1H-imidazole-4-carboxamide]: greater than 50 µM; for `N[C@H]1CC[C@H](NC(=O)c2nc(I)n[nH]2)CC1` [compound 548, N-((1r,4r)-4-aminocyclohexyl)-3-iodo-1H-1,2,4-triazole-5-carboxamide]: greater than 50 µM. On the same count and under the same terms, under `CCc1cccc(C(=O)N[C@@H]2CCN(S(=O)(=O)CCCN)[C@H](C)C2)c1` (racemic) [compound 569, (±)-cis-N-(1-((3-aminopropyl)sulfonyl)-2-methylpiperidin-4-yl)-3-ethylbenzamide] stands 8.02 µM.

The assay is the same for the next values; noted with them: read-out: SMYD3 Biochem IC50.
Consider `CC(NC(=O)c1cc(O)nc2ccccc12)C1CCN(C(=O)[C@H](C)N)CC1` (stereo partly drawn) [compound 199, N-(1-(1-(L-alanyl)piperidin-4-yl)ethyl)-2-hydroxyquinoline-4-carboxamide], for which the IC50 was greater than 100 µM.

On to `CC(NC(=O)c1ccc(S(N)(=O)=O)cc1)C1CCN(C(=O)[C@H](C)N)CC1` (stereo partly drawn) [compound 323, N-(1-(1-(L-alanyl)piperidin-4-yl)ethyl)-4-sulfamoylbenzamide], for which the IC50 was greater than 100 µM. Turning to `CC(NC(=O)c1ccnc(N)c1)C1CCN(C(=O)[C@H](C)N)CC1` (stereo partly drawn) [compound 187, N-(1-(1-(L-alanyl)piperidin-4-yl)ethyl)-2-aminoisonicotinamide], the IC50 is greater than 100 µM. For `N[C@H]1CC[C@H](NC(=O)c2cc3cc(F)ccc3[nH]2)CC1` [compound 242, N-((1r,4r)-4-aminocyclohexyl)-5-fluoro-1H-indole-2-carboxamide], the IC50 is greater than 100 µM. The same measure, in the same setting: under `N[C@H]1CC[C@H](NC(=O)c2cnccn2)CC1` [compound 298, N-((1r,4r)-4-aminocyclohexyl)pyrazine-2-carboxamide] stands greater than 100 µM. As for `N[C@H]1CC[C@H](NC(=O)c2ccncc2F)CC1` [compound 308, N-((1r,4r)-4-aminocyclohexyl)-3-fluoroisonicotinamide], the IC50 is greater than 100 µM.

On to `CC(NC(=O)[C@H]1C[C@H](O)CN1)C1CCN(C(=O)[C@H](C)N)CC1` (stereo partly drawn) [compound 433, (2R,4S)-N-(1-(1-(L-alanyl)piperidin-4-yl)ethyl)-4-hydroxypyrrolidine-2-carboxamide], for which the IC50 worked out at 45.6 µM. `Cc1ncc(C(=O)N[C@H]2CC[C@H](N)CC2)cn1` [compound 320, N-((1r,4r)-4-aminocyclohexyl)-2-methylpyrimidine-5-carboxamide]: the IC50 is greater than 100 µM. Still for that read-out and setting: the same measure for `Cc1ncc(C(=O)N[C@H]2CC[C@H](NC(=O)CCN)CC2)cn1` [compound 184, N-((1r,4r)-4-(3-aminopropanamido)cyclohexyl)-2-methylpyrimidine-5-carboxamide]: 35.8 µM; for `CC(NC(=O)Cc1cc(F)cc(F)c1)C1CCN(C(=O)[C@H](C)N)CC1` (stereo partly drawn) [compound 313, N-(1-(1-(L-alanyl)piperidin-4-yl)ethyl)-2-(3,5-difluorophenyl)acetamide]: 70.7 µM; for `NCCC(=O)N[C@H]1CC[C@H](NC(=O)Cc2ccc3c(c2)CC(=O)N3)CC1` [compound 465, 3-amino-N-((1r,4r)-4-(2-(2-oxoindolin-5-yl)acetamido)cyclohexyl)propanamide]: 38.8 µM. The same measure, in the same setting: under `N[C@H]1CC[C@H](NC(=O)c2ccccn2)CC1` [compound 251, N-((1r,4r)-4-aminocyclohexyl)picolinamide] stands greater than 100 µM; under `CC(NC(=O)c1cccnc1O)C1CCN(C(=O)[C@H](C)N)CC1` (stereo partly drawn) [compound 409, N-(1-(1-(L-alanyl)piperidin-4-yl)ethyl)-2-hydroxynicotinamide], 70.4 µM; under `NCCC(=O)N[C@H]1CC[C@H](NC(=O)Cn2ccnc2)CC1` [compound 366, N-((1r,4r)-4-(2-(1H-imidazol-1-yl)acetamido)cyclohexyl)-3-aminopropanamide], greater than 100 µM.

Regarding `Cc1cnc(C(=O)N[C@H]2CC[C@H](NC(=O)CCN)CC2)s1` [compound 397, N-((1r,4r)-4-(3-aminopropanamido)cyclohexyl)-5-methylthiazole-2-carboxamide], the IC50 was determined as 27.4 µM. Same read-out and setting: the same measure for `Cn1ncc2ccc(C(=O)N[C@H]3CC[C@H](N)CC3)cc21` [compound 275, N-((1r,4r)-4-aminocyclohexyl)-1-methyl-1H-indazole-6-carboxamide]: greater than 100 µM; for `CC(NC(=O)c1cnc2ccccc2n1)C1CCN(C(=O)[C@H](C)N)CC1` (stereo partly drawn) [compound 238, N-(1-(1-(L-alanyl)piperidin-4-yl)ethyl)quinoxaline-2-carboxamide]: greater than 100 µM; for `CC(NC(=O)c1cccc2c1CC(=O)N2)C1CCN(C(=O)[C@H](C)N)CC1` (stereo partly drawn) [compound 399, N-(1-(1-(L-alanyl)piperidin-4-yl)ethyl)-2-oxoindoline-4-carboxamide]: greater than 100 µM. The same measure, in the same setting: under `Cc1nn(C(C)C(=O)NC(C)C2CCN(C(=O)[C@H](C)N)CC2)c(C)c1Br` (stereo partly drawn) [compound 216, N-(1-(1-(L-alanyl)piperidin-4-yl)ethyl)-2-(4-bromo-3,5-dimethyl-1H-pyrazol-1-yl)propanamide] stands greater than 100 µM. Same read-out and setting: under `Cc1cc(C(=O)N[C@H]2CC[C@H](N)CC2)ccn1` [compound 394, N-((1r,4r)-4-aminocyclohexyl)-2-methylisonicotinamide] stands greater than 100 µM; under `COc1cnc(C(=O)NC(C)C2CCN(C(=O)[C@H](C)N)CC2)cn1` (stereo partly drawn) [compound 302, N-(1-(1-(L-alanyl)piperidin-4-yl)ethyl)-5-methoxypyrazine-2-carboxamide], greater than 100 µM; under `CC(NC(=O)c1ccc(N)nc1)C1CCN(C(=O)[C@H](C)N)CC1` (stereo partly drawn) [compound 387, N-(1-(1-(L-alanyl)piperidin-4-yl)ethyl)-6-aminonicotinamide], greater than 100 µM. Take `Cn1ccc(C(=O)N[C@H]2CC[C@H](N)CC2)n1` [compound 350, N-((1r,4r)-4-aminocyclohexyl)-1-methyl-1H-pyrazole-3-carboxamide]: the IC50 is greater than 100 µM. On the same count and under the same terms, under `Cc1nn(C(C)C(=O)N[C@H]2CC[C@H](NC(=O)CCN)CC2)c(C)c1Br` (stereo partly drawn) [compound 431, 3-amino-N-((1r,4r)-4-(2-(4-bromo-3,5-dimethyl-1H-pyrazol-1-yl)propanamido)cyclohexyl)propanamide] stands greater than 100 µM; under `NC(=O)Cn1cc(C(=O)N[C@H]2CC[C@H](N)CC2)nn1` [compound 501, 1-(2-amino-2-oxoethyl)-N-((1r,4r)-4-aminocyclohexyl)-1H-1,2,3-triazole-4-carboxamide], 50 µM. Turning to `NCCC(=O)N[C@H]1CC[C@H](NC(=O)c2cncnc2O)CC1` [compound 510, N-((1r,4r)-4-(3-aminopropanamido)cyclohexyl)-4-hydroxypyrimidine-5-carboxamide], the IC50 was greater than 50 µM.

The same assay, now with this note: read-out: SMYD3 Biochem IC50 (μM)*.
On to `CCn1ccc(C(=O)N[C@H]2CC[C@H](N)CC2)n1` [compound 13, N-((1r,4r)-4-aminocyclohexyl)-1-ethyl-1H-pyrazole-3-carboxamide], for which the IC50 worked out at 112 µM. As for `O=C1Cc2cc(C(=O)NC(c3ccccc3)C3CCNCC3)ccc2N1` (stereo not drawn) [compound 44, 2-oxo-N-(phenyl(piperidin-4-yl)methyl)indoline-5-carboxamide], the IC50 amounted to 14.1 µM. Still for that read-out and setting: the same measure for `CC(NC(=O)c1ccc2ccccc2n1)C1CCN(C(=O)[C@H](C)N)CC1` (stereo partly drawn) [compound 162, N-(1-(1-(L-alanyl)piperidin-4-yl)ethyl)quinoline-2-carboxamide]: greater than 100 µM; for `C[C@H](N)C(=O)N1CC[C@@H](CNC(=O)c2ccc3c(c2)CC(=O)N3)C1` [compound 134, N-(((S)-1-(L-alanyl)pyrrolidin-3-yl)methyl)-2-oxoindoline-5-carboxamide]: 10.2 µM; for `N[C@@H](Cc1c[nH]c2ccccc12)C(=O)N1CCC(CNC(=O)c2ccc3c(c2)CC(=O)N3)CC1` [compound 103, N-((1-(L-tryptophyl)piperidin-4-yl)methyl)-2-oxoindoline-5-carboxamide]: 2.74 µM. Still for that read-out and setting: under `C[C@@H](N)C(=O)N1CC[C@H](CNC(=O)c2ccc3c(c2)CC(=O)N3)C1` [compound 177, N-(((R)-1-(D-alanyl)pyrrolidin-3-yl)methyl)-2-oxoindoline-5-carboxamide] stands 19.8 µM; under `O=C1Cc2cc(C(=O)NC3CCNCC3)cnc2N1` [compound 68, 2-oxo-N-(piperidin-4-yl)-2,3-dihydro-1H-pyrrolo[2,3-b]pyridine-5-carboxamide], 86.1 µM; under `CN1C(=O)Cc2cc(C(=O)NC3CCN(C(=O)[C@@H](N)Cc4ccc(O)cc4)CC3)ccc21` [compound 82, N-(1-(L-tyrosyl)piperidin-4-yl)-1-methyl-2-oxoindoline-5-carboxamide], 8.7 µM. Same read-out and setting: under `N[C@H]1CC[C@H](NC(=O)c2nnc[nH]2)CC1` [compound 127, N-((1r,4r)-4-aminocyclohexyl)-4H-1,2,4-triazole-3-carboxamide] stands 16.4 µM; under `N[C@H]1CC[C@H](NC(=O)c2ccc3c(c2)NC(=O)CC3)CC1` [compound 91, N-((1r,4r)-4-aminocyclohexyl)-2-oxo-1,2,3,4-tetrahydroquinoline-7-carboxamide], 89.5 µM; under `CC(NC(=O)c1cccc(S(C)(=O)=O)c1)C1CCN(C(=O)[C@H](C)N)CC1` (stereo partly drawn) [compound 149, N-(1-(1-(L-alanyl)piperidin-4-yl)ethyl)-3-(methylsulfonyl)benzamide], greater than 100 µM.

The IC50 is the midpoint of a concentration-inhibition curve.

These data come from patent US10266526B2, “Substituted 1,2,3-triazoles as SMYD inhibitors for treating cancer” (EPIZYME, INC., priority 2014, dated 2019).
